From PubChem BioAssay (NCI)
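These data come from cells grown in 96-well plates and exposed to compound for 48 hours at five concentrations. Abbreviation: GI50, concentration required for 50% inhibition of growth. TGI: concentration producing complete growth inhibition.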

Legend:
Test in all cases: DTP human tumour cell line panel, 48 h
ACHN renal = test system: ACHN renal
DU-145 prostate = test system: DU-145 prostate
OVCAR-8 ovarian = test system: OVCAR-8 ovarian
HOP-92 NSCLC = test system: HOP-92 NSCLC
HL-60(TB) leukemia = test system: HL-60(TB) leukemia
UO-31 renal = test system: UO-31 renal
U251 CNS = test system: U251 CNS
UACC-62 melanoma = test system: UACC-62 melanoma
HCC-2998 colon = test system: HCC-2998 colon
NCI-H460 lung = test system: NCI-H460 lung
MALME-3M melanoma = test system: MALME-3M melanoma
COLO 205 colon = test system: COLO 205 colon
OVCAR-4 ovarian = test system: OVCAR-4 ovarian
A498 renal = test system: A498 renal
SF-268 CNS = test system: SF-268 CNS
NCI/ADR-RES ovarian = test system: NCI/ADR-RES ovarian
RXF 393 renal = test system: RXF 393 renal
KM12 colon = test system: KM12 colon
NCI-H23 lung = test system: NCI-H23 lung
HT29 colon = test system: HT29 colon
RPMI-8226 leukemia = test system: RPMI-8226 leukemia
HCT-116 colon = test system: HCT-116 colon
SK-MEL-5 melanoma = test system: SK-MEL-5 melanoma
SW-620 colon = test system: SW-620 colon
SN12C renal = test system: SN12C renal
SF-539 CNS = test system: SF-539 CNS
SR leukemia = test system: SR leukemia
SK-MEL-2 melanoma = test system: SK-MEL-2 melanoma
PC-3 prostate = test system: PC-3 prostate
MDA-MB-231 breast = test system: MDA-MB-231 breast
HCT-15 colon = test system: HCT-15 colon
UACC-257 melanoma = test system: UACC-257 melanoma
MCF7 breast = test system: MCF7 breast
EKVX NSCLC = test system: EKVX NSCLC
SNB-19 CNS = test system: SNB-19 CNS
IGROV1 ovarian = test system: IGROV1 ovarian
HS 578T breast = test system: HS 578T breast
HOP-62 NSCLC = test system: HOP-62 NSCLC
CCRF-CEM leukemia = test system: CCRF-CEM leukemia
MDA-MB-435 = test system: MDA-MB-435
SK-MEL-28 melanoma = test system: SK-MEL-28 melanoma
SF-295 CNS = test system: SF-295 CNS
NCI-H522 lung = test system: NCI-H522 lung
TK-10 renal = test system: TK-10 renal
CAKI-1 renal = test system: CAKI-1 renal
M14 melanoma = test system: M14 melanoma
A549 NSCLC = test system: A549 NSCLC
T-47D breast = test system: T-47D breast
BT-549 breast = test system: BT-549 breast
OVCAR-3 ovarian = test system: OVCAR-3 ovarian
786-0 renal = test system: 786-0 renal
NCI-H226 lung = test system: NCI-H226 lung
OVCAR-5 ovarian = test system: OVCAR-5 ovarian
LOX IMVI melanoma = test system: LOX IMVI melanoma
K-562 leukemia = test system: K-562 leukemia
SNB-75 CNS = test system: SNB-75 CNS

Question: How did the GI50 (ACHN renal) turn out when `Nn1c2c(c3ccccc3c1=O)C(=O)c1ccccc1-2` was run?
Answer: > 50 µM

Question: And the TGI (ACHN renal)?
Answer: > 50 µM

Question: What about the GI50 (DU-145 prostate) of the same compound?
Answer: > 50 µM

Question: What about the TGI (DU-145 prostate) of the same compound?
Answer: > 50 µM

Question: And the GI50 (OVCAR-8 ovarian)?
Answer: 26.7 µM

Question: And the TGI (OVCAR-8 ovarian)?
Answer: > 50 µM

Question: And the GI50 (HOP-92 NSCLC)?
Answer: > 50 µM

Question: And the TGI (HOP-92 NSCLC)?
Answer: > 50 µM

Question: What about the GI50 (HL-60(TB) leukemia) of the same compound?
Answer: > 50 µM

Question: What about the TGI (HL-60(TB) leukemia) of the same compound?
Answer: > 50 µM

Question: What about the GI50 (UO-31 renal) of the same compound?
Answer: > 50 µM

Question: What about the TGI (UO-31 renal) of the same compound?
Answer: > 50 µM

Question: What about the GI50 (U251 CNS) of the same compound?
Answer: 20.5 µM

Question: And the TGI (U251 CNS)?
Answer: > 50 µM

Question: What about the GI50 (UACC-62 melanoma) of the same compound?
Answer: > 50 µM

Question: And the TGI (UACC-62 melanoma)?
Answer: > 50 µM

Question: And the GI50 (HCC-2998 colon)?
Answer: > 50 µM

Question: And the TGI (HCC-2998 colon)?
Answer: > 50 µM

Question: And the GI50 (NCI-H460 lung)?
Answer: 40.5 µM

Question: What about the TGI (NCI-H460 lung) of the same compound?
Answer: > 50 µM

Question: What about the GI50 (MALME-3M melanoma) of the same compound?
Answer: > 50 µM

Question: And the TGI (MALME-3M melanoma)?
Answer: > 50 µM

Question: What about the GI50 (COLO 205 colon) of the same compound?
Answer: > 50 µM

Question: And the TGI (COLO 205 colon)?
Answer: > 50 µM

Question: And the GI50 (OVCAR-4 ovarian)?
Answer: > 50 µM

Question: What about the TGI (OVCAR-4 ovarian) of the same compound?
Answer: > 50 µM

Question: What about the GI50 (A498 renal) of the same compound?
Answer: > 50 µM

Question: And the TGI (A498 renal)?
Answer: > 50 µM

Question: What about the GI50 (SF-268 CNS) of the same compound?
Answer: 15.7 µM

Question: And the TGI (SF-268 CNS)?
Answer: > 50 µM

Question: What about the GI50 (NCI/ADR-RES ovarian) of the same compound?
Answer: > 50 µM

Question: And the TGI (NCI/ADR-RES ovarian)?
Answer: > 50 µM

Question: What about the GI50 (RXF 393 renal) of the same compound?
Answer: 15.7 µM

Question: What about the TGI (RXF 393 renal) of the same compound?
Answer: > 50 µM

Question: What about the GI50 (KM12 colon) of the same compound?
Answer: > 50 µM

Question: And the TGI (KM12 colon)?
Answer: > 50 µM

Question: And the GI50 (NCI-H23 lung)?
Answer: > 50 µM

Question: And the TGI (NCI-H23 lung)?
Answer: > 50 µM

Question: What about the GI50 (HT29 colon) of the same compound?
Answer: > 50 µM

Question: What about the TGI (HT29 colon) of the same compound?
Answer: > 50 µM

Question: And the GI50 (RPMI-8226 leukemia)?
Answer: > 50 µM

Question: What about the TGI (RPMI-8226 leukemia) of the same compound?
Answer: > 50 µM

Question: And the GI50 (HCT-116 colon)?
Answer: > 50 µM

Question: What about the TGI (HCT-116 colon) of the same compound?
Answer: > 50 µM

Question: And the GI50 (SK-MEL-5 melanoma)?
Answer: > 50 µM

Question: What about the TGI (SK-MEL-5 melanoma) of the same compound?
Answer: > 50 µM

Question: What about the GI50 (SW-620 colon) of the same compound?
Answer: > 50 µM

Question: And the TGI (SW-620 colon)?
Answer: > 50 µM

Question: And the GI50 (SN12C renal)?
Answer: > 50 µM

Question: And the TGI (SN12C renal)?
Answer: > 50 µM

Question: What about the GI50 (SF-539 CNS) of the same compound?
Answer: 27.9 µM

Question: What about the TGI (SF-539 CNS) of the same compound?
Answer: > 50 µM

Question: And the GI50 (SR leukemia)?
Answer: 31 µM

Question: What about the TGI (SR leukemia) of the same compound?
Answer: > 50 µM

Question: What about the GI50 (SK-MEL-2 melanoma) of the same compound?
Answer: > 50 µM

Question: What about the TGI (SK-MEL-2 melanoma) of the same compound?
Answer: > 50 µM

Question: And the GI50 (PC-3 prostate)?
Answer: > 50 µM

Question: What about the TGI (PC-3 prostate) of the same compound?
Answer: > 50 µM

Question: What about the GI50 (MDA-MB-231 breast) of the same compound?
Answer: > 50 µM

Question: What about the TGI (MDA-MB-231 breast) of the same compound?
Answer: > 50 µM

Question: What about the GI50 (HCT-15 colon) of the same compound?
Answer: > 50 µM

Question: What about the TGI (HCT-15 colon) of the same compound?
Answer: > 50 µM

Question: And the GI50 (UACC-257 melanoma)?
Answer: > 50 µM

Question: What about the TGI (UACC-257 melanoma) of the same compound?
Answer: > 50 µM

Question: And the GI50 (MCF7 breast)?
Answer: 20 µM

Question: What about the TGI (MCF7 breast) of the same compound?
Answer: > 50 µM

Question: What about the GI50 (EKVX NSCLC) of the same compound?
Answer: > 50 µM

Question: And the TGI (EKVX NSCLC)?
Answer: > 50 µM

Question: What about the GI50 (SNB-19 CNS) of the same compound?
Answer: 20.9 µM

Question: And the TGI (SNB-19 CNS)?
Answer: > 50 µM

Question: And the GI50 (IGROV1 ovarian)?
Answer: > 50 µM

Question: What about the TGI (IGROV1 ovarian) of the same compound?
Answer: > 50 µM

Question: And the GI50 (HS 578T breast)?
Answer: 18.4 µM

Question: And the TGI (HS 578T breast)?
Answer: > 50 µM

Question: And the GI50 (HOP-62 NSCLC)?
Answer: 24.5 µM

Question: What about the TGI (HOP-62 NSCLC) of the same compound?
Answer: > 50 µM

Question: And the GI50 (CCRF-CEM leukemia)?
Answer: > 50 µM

Question: What about the TGI (CCRF-CEM leukemia) of the same compound?
Answer: > 50 µM

Question: And the GI50 (MDA-MB-435)?
Answer: > 50 µM

Question: What about the TGI (MDA-MB-435) of the same compound?
Answer: > 50 µM

Question: And the GI50 (SK-MEL-28 melanoma)?
Answer: > 50 µM

Question: What about the TGI (SK-MEL-28 melanoma) of the same compound?
Answer: > 50 µM

Question: What about the GI50 (SF-295 CNS) of the same compound?
Answer: 30.1 µM

Question: And the TGI (SF-295 CNS)?
Answer: > 50 µM

Question: What about the GI50 (NCI-H522 lung) of the same compound?
Answer: 30.1 µM

Question: What about the TGI (NCI-H522 lung) of the same compound?
Answer: > 50 µM

Question: And the GI50 (TK-10 renal)?
Answer: 18.1 µM

Question: And the TGI (TK-10 renal)?
Answer: > 50 µM

Question: And the GI50 (CAKI-1 renal)?
Answer: > 50 µM

Question: And the TGI (CAKI-1 renal)?
Answer: > 50 µM

Question: What about the GI50 (M14 melanoma) of the same compound?
Answer: > 50 µM

Question: What about the TGI (M14 melanoma) of the same compound?
Answer: > 50 µM

Question: What about the GI50 (A549 NSCLC) of the same compound?
Answer: > 50 µM

Question: What about the TGI (A549 NSCLC) of the same compound?
Answer: > 50 µM

Question: And the GI50 (T-47D breast)?
Answer: > 50 µM

Question: And the TGI (T-47D breast)?
Answer: > 50 µM

Question: What about the GI50 (BT-549 breast) of the same compound?
Answer: > 50 µM

Question: And the TGI (BT-549 breast)?
Answer: > 50 µM

Question: What about the GI50 (OVCAR-3 ovarian) of the same compound?
Answer: > 50 µM

Question: And the TGI (OVCAR-3 ovarian)?
Answer: > 50 µM

Question: And the GI50 (786-0 renal)?
Answer: 37.7 µM

Question: And the TGI (786-0 renal)?
Answer: > 50 µM

Question: What about the GI50 (NCI-H226 lung) of the same compound?
Answer: 48.3 µM

Question: What about the TGI (NCI-H226 lung) of the same compound?
Answer: > 50 µM

Question: And the GI50 (OVCAR-5 ovarian)?
Answer: > 50 µM

Question: And the TGI (OVCAR-5 ovarian)?
Answer: > 50 µM

Question: And the GI50 (LOX IMVI melanoma)?
Answer: > 50 µM

Question: What about the TGI (LOX IMVI melanoma) of the same compound?
Answer: > 50 µM

Question: And the GI50 (K-562 leukemia)?
Answer: > 50 µM

Question: What about the TGI (K-562 leukemia) of the same compound?
Answer: > 50 µM

Question: And the GI50 (SNB-75 CNS)?
Answer: 11.6 µM

Question: And the TGI (SNB-75 CNS)?
Answer: 33.5 µM
